Laboratory results as given in patent US20110217300A1, “Quinazolinone Compounds and Methods of Use Thereof” (priority 2007, published 2011).
Where two headings read alike, the source gives them in different places.

Assays:
HsEg5 = molecular target: T1, HsEg5 (Homo sapiens, UniProt P52732); test: Fluorescence detection of HsEg5 ATPase activity (ADP Quest, automated); assay type: biochemical
T1 sequence (P52732 18-359 limits assumed): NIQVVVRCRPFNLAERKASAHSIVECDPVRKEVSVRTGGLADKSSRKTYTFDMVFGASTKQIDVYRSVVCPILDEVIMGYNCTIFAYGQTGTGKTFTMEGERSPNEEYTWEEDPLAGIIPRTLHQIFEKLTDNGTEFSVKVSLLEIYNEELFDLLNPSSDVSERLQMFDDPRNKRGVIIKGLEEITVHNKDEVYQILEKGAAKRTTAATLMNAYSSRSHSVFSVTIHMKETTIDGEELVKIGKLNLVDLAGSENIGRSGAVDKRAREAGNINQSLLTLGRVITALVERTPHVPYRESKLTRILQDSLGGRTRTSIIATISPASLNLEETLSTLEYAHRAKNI
How it was run: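 Microtubule-activated HsEg5 motor fragment (10 nM, 500 nM MTs) preincubated 10 min with compound, then 20 μM ATP for 10 min at room temperature in Pipes pH 7.0, MgCl2, paclitaxel, 0.3% DMSO. ADP detected via coupled-enzyme resorufin fluorescence; IC50 over 100 μM–5 nM.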

NCI-H460 = test: MTS cell viability assay; assay type: cell-based, human; details: Homo sapiens, NCI-H460, 72 h
How it was run: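 Cells in DMEM (4.5 g/L glucose) with 10% heat-inactivated FBS, 10 mM L-glutamine and 10 mM Hepes pH 7.5 at 37° C./5% CO2 were seeded at 100-5000 cells/well, then exposed to serially diluted compound (0.33% DMSO final) for 72 hours. Viability read by MTS/PMS reduction, absorbance 490 nm; GI50 reported.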

A549 = test: MTS cell viability assay; assay type: cell-based; details: Homo sapiens, A549 non small cell lung, 72 hours, read-out: MTS NCI A549 GI50
How it was run: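 A549 and a second human cancer line seeded in DMEM/10% FBS, allowed 16–24 h to attach, then exposed 72 h at 37 °C, 5% CO2 to serially diluted compound (final DMSO 0.33%). Viability measured by MTS.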

[1] = read-out: MTS NCI H460 GI50, NCI-H460 non small cell lung, 72 hours

Row | SMILES | IC50 (HsEg5) [µM] | GI50 (NCI-H460; [1]) [µM] | GI50 (A549; A549, 72 h) [µM] | GI50 (NCI-H460; read-out: MTS NCI H460 GI50) [µM] | GI50 (A549) [µM]
1 | CC(C)CC(c1nc2cc(Cl)ccc2c(=O)n1Nc1ccccc1)N(CCCN)C(=O)c1ccc(F)c(Cl)c1 (stereo not drawn) [Compound 37, N-(3-Aminopropyl)-N-[1-(3-anilino-7-chloro-4-oxo-3,4-dihydroquinazolin-2-yl)-3-methylbutyl]-3-chloro-4-fluorobenzamide] | 1.66 | 4.49 | 5.02 |  | 
2 | CSCCC(c1nc2cc(Cl)ccc2c(=O)n1Nc1ccccc1)N(CCCN)C(=O)c1ccc(C)c(F)c1F (stereo not drawn) [Compound 39, N-(3-Aminopropyl)-N-[1-(3-anilino-7-chloro-4-oxo-3,4-dihydroquinazolin-2-yl)-3-(methylthio)propyl]-2,3-difluoro-4-methylbenzamide] | 3.01 |  |  | 4.49 | 6.09
3 | CSCCC(c1nc2cc(Cl)ccc2c(=O)n1Nc1ccccc1)N(CCCN)C(=O)c1ccc(-n2cccn2)cc1 (stereo not drawn) [Compound 40, N-(3-Aminopropyl)-N-[1-(3-anilino-7-chloro-4-oxo-3,4-dihydroquinazolin-2-yl)-3-(methylthio)propyl]-4-(1H-pyrazol-1-yl)benzamide] | 2.83 |  |  | 8.35 | 6.12
4 | CC(c1nc2cc(Cl)ccc2c(=O)n1Nc1ccccc1)N(CCCN)C(=O)c1ccc(Cl)c(Cl)c1 (stereo not drawn) [Compound 41, N-(3-Aminopropyl)-N-[1-(3-anilino-7-chloro-4-oxo-3,4-dihydroquinazolin-2-yl)ethyl]-3,4-dichlorobenzamide] | 3.37 |  |  | 6.28 | 5.67
5 | CC(C)C(c1nc2cc(Cl)ccc2c(=O)n1Nc1ccccc1)N(CCCN)C(=O)c1cccc(F)c1F (stereo not drawn) [Compound 42, N-(3-Aminopropyl)-N-[1-(3-anilino-7-chloro-4-oxo-3,4-dihydroquinazolin-2-yl)-2-methylpropyl]-2,3-difluorobenzamide] | 0.476 |  |  | 2.08 | 4.28
6 | CC(C)C(c1nc2cc(Cl)ccc2c(=O)n1Nc1ccccc1)N(CCCN)C(=O)c1ccc(F)cc1 (stereo not drawn) [Compound 43, N-(3-Aminopropyl)-N-[1-(3-anilino-7-chloro-4-oxo-3,4-dihydroquinazolin-2-yl)-2-methylpropyl]-4-fluorobenzamide] | 0.833 |  |  | 2.81 | 3.49
7 | CC(C)C(c1nc2cc(Cl)ccc2c(=O)n1Nc1ccccc1)N(CCCN)C(=O)c1cccc(Br)c1 (stereo not drawn) [Compound 44, N-(3-Aminopropyl)-N-[1-(3-anilino-7-chloro-4-oxo-3,4-dihydroquinazolin-2-yl)-2-methylpropyl]-3-bromobenzamide] | 1.85 | 13.4 | 13.8 |  | 
8 | CC(C)C(c1nc2cc(Cl)ccc2c(=O)n1Nc1ccccc1)N(CCCN)C(=O)c1cc(F)c(Cl)cc1F (stereo not drawn) [Compound 45, N-(3-Aminopropyl)-N-[1-(3-anilino-7-chloro-4-oxo-3,4-dihydroquinazolin-2-yl)-2-methylpropyl]-4-chloro-2,5-difluorobenzamide] | 0.743 |  |  | 3.17 | 3.24
9 | CC(C)C(c1nc2cc(Cl)ccc2c(=O)n1Nc1ccccc1)N(CCCN)C(=O)c1ccc2ccccc2n1 (stereo not drawn) [Compound 47, N-(3-Aminopropyl)-N-[1-(3-anilino-7-chloro-4-oxo-3,4-dihydroquinazolin-2-yl)-2-methylpropyl]quinoline-2-carboxamide] | 3.23 |  |  | 2.7 | 4.09
10 | NCCCN(C(=O)c1ccc(Br)cc1)C(Cc1cccs1)c1nc2cc(Cl)ccc2c(=O)n1Nc1ccccc1 (stereo not drawn) [Compound 48, N-(3-Aminopropyl)-N-[1-(3-anilino-7-chloro-4-oxo-3,4-dihydroquinazolin-2-yl)-2-(2-thienyl)ethyl]-4-bromobenzamide] | 2.57 |  |  | 4.36 | 4.93
11 | Cc1ccc(C(=O)N(CCCN)C(Cc2cccs2)c2nc3cc(Cl)ccc3c(=O)n2Nc2ccccc2)cc1 (stereo not drawn) [Compound 49, N-(3-Aminopropyl)-N-[1-(3-anilino-7-chloro-4-oxo-3,4-dihydroquinazolin-2-yl)-2-(2-thienyl)ethyl]-4-methylbenzamide] | 3.44 | 4.41 | 4.69 |  | 
